{
  "source": "patent US20230139506A1",
  "about": "“HETEROCLITIC CANCER VACCINES” (MEMORIAL SLOAN KETTERING CANCER CENTER, priority 2020, published 2023)",
  "key": {"[1]": {"tested_on": "RMA/SpER-CALR9p2 tumors", "assay": "Tumor growth experiments with RMA/SpER-CALR9p2 tumors", "format": "in vivo, mouse", "protocol": "(§1) All peptides were purchased as custom peptide synthesis orders from GenScript at a purity of >98% and resuspend at 10 mg/mL in DMSO (Sigma). For peptide vaccines, peptides were diluted in PBS and emulsified with Titermax® (Titermax USA, Inc) at a 1:1 ratio immediately prior to immunization, such that each dose was composed of 10 μg peptide in a total volume of 25 uL. In control (DMSO) immunization, an equivalent volume of DMSO is substituted for the diluted peptide in the TiterMax® emulsion. For subsequent in vitro assays, draining inguinal and popliteal lymph nodes were collected at indicated time points and CD8+ T cells were isolated using positive magnetic sorting using mouse CD8a (Ly-2) MicroBeads (Miltenyi Biotec). DNA vaccines were performed using a gene gun as previously described (27, 63) according to indicated time points. Briefly, mice received four injections (400 lbs/inch2) of DNA-coated gold particles into the abdominal region of the skin for a total 4 μg of DNA per dose. DNA plasmids encoding the wildtype or 52 base-pair deletion CALRMUT sequences fused with the flag sequence are as previously described (64). For pING-OVA, the full-length chicken ovalbumin sequence was cloned into the pING plasmid (65). CD8+ T cells were collected as before, but only from draining inguinal lymph nodes. To test for antigen-specificity, the mouse IFNγ ELISpot set (BD) was used according to the manufacturer's instructions. Briefly, CD8+ T cells were frozen immediately after purification in FBS containing 10% DMSO, thawed one day prior to restimulation and allowed to recover overnight in 20 U/mL IL-2 (Peprotech) RPMI-1640 medium containing 10% fetal bovine serum (FBS), Na-Pyruvate, L-glutamine and Penicillin/Streptomycin. As a source of antigen-presenting cells (APCs), splenocytes from naïve mice were depleted of T cells using magnetic microbeads for CD8a (Ly2) and CD4 (L3T4) (Miltenyi Biotec), pulsed for one hour with 100 μg/mL peptide at 37° C. followed by a wash. For each well, 105 CD8+ T cells were co-culture with 1×105-3×105 peptide-pulsed APCs and incubated for approximately 18 hours. Spots were counted using the ImmunoSpot analyzer (Cellular Technology Limited).\nRMA/S cells were maintained in RPMI 1640 medium supplemented with 7.5% inactivated FBS, 1×non-essential amino acids and 2 mM L-glutamine. The DNA sequence encoding the CALR9p2 peptide (bold) was cloned into the PresentER-IRES-GFP (38) construct using the following oligo:\nfollowing SfiI digestion and T4 ligation (New England Biolabs). The resulting construct was used to generate retrovirus by co-transfection with pCL-Ampho into ecotropic Pheonix cells (ATCC). Viral supernatants were collected at 48 and 72 hours, pooled and Retro-X Concentrator (Takara Bio USA)-concentrated retrovirus was used to transduce RMA/S cells by spinoculation using polybrene (Sigma). GFP-positive cells were FACS sorted (BD FACSAria III) and cultured in 4 μg/mL puromycin (Gibco) media. A total of 5×10^6 cells were injected subcutaneously in the flank of mice. For anti-PD1 treatment, 250 μg of RMP1-14 was injected intra-peritoneally in PBS at indicated time points."}, "[2]": {"tested_on": "peptide-pulsed B16 cells", "assay": "Killing assay of peptide-pulsed B16 cells by CD8+ T cells isolated from peptide-immunized mice", "format": "cell-based, mouse", "conditions": "CD8+ T cells from mice immunized with a single dose"}, "[3]": {"target": "T1, H-2Kb (Mus musculus, UniProt P01901)", "T1 construct": "its ability to stabilize MHC-I in the H-2Kb-expressing TAP-deficient RMA/S cell line; endogenous in cells; host or cells: RMA/S cells (murine, TAP-deficient)", "T1 sequence (P01901 22-369)": "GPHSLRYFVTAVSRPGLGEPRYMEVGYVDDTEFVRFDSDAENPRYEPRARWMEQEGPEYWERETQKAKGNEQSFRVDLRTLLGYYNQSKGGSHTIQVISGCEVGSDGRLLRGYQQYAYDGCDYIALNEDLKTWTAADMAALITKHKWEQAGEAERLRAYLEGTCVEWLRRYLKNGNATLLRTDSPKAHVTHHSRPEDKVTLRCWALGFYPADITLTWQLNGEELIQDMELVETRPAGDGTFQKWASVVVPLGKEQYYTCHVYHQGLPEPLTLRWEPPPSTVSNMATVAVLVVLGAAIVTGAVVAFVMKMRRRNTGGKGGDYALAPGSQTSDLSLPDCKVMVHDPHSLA", "T1 sequence (P01887 21-119 partner)": "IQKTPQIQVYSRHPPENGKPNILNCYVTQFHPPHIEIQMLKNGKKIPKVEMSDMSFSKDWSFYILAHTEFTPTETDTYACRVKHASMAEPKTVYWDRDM", "assay": "MHC-I stabilization assay using TAP-deficient RMA/S cells", "format": "cell-based, murine", "protocol": "(§2) To test peptide binding to murine H-2Kb or human HLA-A*02:01, TAP-deficient RMA/S and T2 cells were used, respectively, as previously reported (59, 60). […] T2 cells (62) were serum-starved in serum-free RPMI media overnight and […] at indicated final concentrations for 16 hours before measuring HLA-A*02:01 levels by flow cytometry (BD; Clone BB7.2). The […] (SEQ ID NO. 287) peptide was acquired as a custom order from Genscript."}, "[4]": {"tested_on": "CD8+ T cells", "assay": "CALR9p2(T5F)-tetramer staining and flow cytometry of CD8+ T cells from immunized mice", "format": "in vivo, mouse"}, "[5]": {"tested_on": "C57BL/6J mice", "assay": "Peptide immunization (Titermax adjuvant) and IFNγ ELISpot of CD8+ T cells from draining lymph nodes", "format": "in vivo, mouse", "conditions": "for CALR9p2-specific CD8+ T cell response: peptide emulsified in Titermax adjuvant, secondary restimulation with CALR9p2", "protocol": "as §1"}, "[6]": {"target": "T2, HLA-A*02:01 (Homo sapiens, UniProt P04439, D140Y/D185E/D98H/E176V/E277Q/G131W/G231S/I119V/I121R/I166T/I218V/L300P/L318F/N151K/N90K/P208A/P217A/Q86G/Q94H/R138H/R169H/T345S)", "T2 construct": "endogenous in cells; host or cells: T2 cells (human, TAP-deficient)", "assay": "MHC-I stabilization assay using human TAP-deficient T2 cells", "format": "cell-based", "conditions": "flow cytometry", "protocol": "as §2"}, "[7]": {"tested_on": "PBMCs from healthy HLA-A*02:01 individuals", "assay": "Human PBMC in vitro restimulation, IFNγ+ CD8+ T cells by intracellular staining", "format": "cell-based", "conditions": "six healthy donors; significant (P<0.05) or trending (P<0.30)", "protocol": "Freshly isolated or thawed cryopreserved healthy donor PBMCs were restimulated with cytokines and peptides as previously described (14). Briefly, on day 0, PBMCs were resuspended in X-VIVO15 media (Lonza) and seeded at 105 per well of a 96 U-bottom plate with 1000 IU/mL GM-CSF (Sanofi), 500 IU/mL IL-4 (R&D Systems) and 50 ng/mL Flt3L (R&D Systems). On day 1, media was refreshed with 0.1 μg/mL LPS (Invivogen), 10 μM R848 (Invivogen), 5 μg/mL IL-10 (R&D Systems) and 1 μg/mL of indicated peptides, and incubated for 24 hours. The CMV, EBV, Flu, Tetanus (CEFT) and the myelin oligodendrocyte glycoprotein (MOG) peptide pools (JPT Technologies) were used as positive and negative controls, respectively. On days 2 and 5, half the media was refreshed with RPMI (Gibco) containing 10% human serum (Gemini Bio-Products), 10 ug/ml gentamycin (Gibco), HEPES (Gibco), GlutaMAX (Gibco) and hIL-2 and hIL-7 to a final concentration of 10 IU/mL and 10 ng/mL, respectively (R&D Systems). On day 8, the media was refreshed without cytokines. On day 10, PBMCs were restimulated with corresponding peptides in the presence of 1 μg/mL of anti-hCD28 and anti-hCD49d (BD Biosciences). As controls, some cells were stimulated with PMA (Sigma-Aldrich, 50 ng/mL) and ionomycin (Sigma-Aldrich, 1 μg/mL). […] Data was acquired using the BD Fortessa and the data was analyzed on FlowJo V10 (TreeStar). […]"}, "[8]": {"target": "T3, murine H-2Kb on TAP-deficient RMA/S cells (murine, UniProt P01887 21-119; P01901 22-305)", "T3 construct": "whole, on cells;extracellular; MHC class I molecule; surface level read with antibody clone AF6-88.5 by flow cytometry", "T3 sequence (MHC heavy, looked up)": "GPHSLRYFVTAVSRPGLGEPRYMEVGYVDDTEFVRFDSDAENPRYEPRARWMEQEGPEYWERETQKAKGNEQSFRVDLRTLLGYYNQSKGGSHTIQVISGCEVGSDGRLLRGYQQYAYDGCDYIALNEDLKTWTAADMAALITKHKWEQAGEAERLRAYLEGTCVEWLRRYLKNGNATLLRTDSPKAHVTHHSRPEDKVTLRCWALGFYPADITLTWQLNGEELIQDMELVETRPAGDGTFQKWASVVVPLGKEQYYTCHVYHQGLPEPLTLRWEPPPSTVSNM", "T3 sequence (b2m, looked up)": "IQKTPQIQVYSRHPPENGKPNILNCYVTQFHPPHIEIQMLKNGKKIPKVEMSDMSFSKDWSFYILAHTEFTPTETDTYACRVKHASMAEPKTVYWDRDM", "assay": "H-2Kb stabilization assay on RMA/S cells, flow cytometry"}, "[9]": {"target": "T3, murine H-2Kb on TAP-deficient RMA/S …", "assay": "H-2Kb stabilization assay on RMA/S cells in absence of serum, flow cytometry", "description": "To test peptide binding to murine H-2Kb or human HLA-A*02:01, TAP-deficient RMA/S and T2 cells were used, respectively, as previously reported (59, 60)."}, "[10]": {"conditions": "prophylactic: three doses prior to tumor implantation, vs adjuvant alone"}, "[11]": {"conditions": "therapeutic: multiple doses after tumors allowed to grow, vs adjuvant alone"}, "[12]": {"conditions": "initial CALR9p2(T5F) followed by two CALR9p2 boosts"}, "[13]": {"conditions": "two doses of CALR9p2(T5F) and a final CALR9p2 boost"}},
  "data": [
    {"molecule": "RMMRFKMRM [CALR9p2(T5F)]", "values": [
      {"measurement": "survival", "setting": "[1]; prophylactic: three doses prior to tumor implantation", "value": "differences in survival were not significant"},
      {"measurement": "tumor growth", "setting": "[1]; [10]", "value": "grew significantly slower"},
      {"measurement": "effect of the vaccine", "setting": "[1]; therapeutic, administered with immune checkpoint blockade using a PD-1 antibody", "value": "even more prominent"},
      {"measurement": "survival", "setting": "[1]; [11]", "value": "improved survival"},
      {"measurement": "tumor growth", "setting": "[1]; [11]", "value": "tumors grew significantly slower"},
      {"measurement": "killing of tumor cells pulsed with the CALR9p2 peptide", "setting": "[2]", "value": "killing tumor cells pulsed with the CALR9p2 peptide"},
      {"measurement": "fold H-2Kb stabilization compared to CALR9p2", "setting": "[3]; absence of serum", "value": "tenfold"},
      {"measurement": "IFNγ restimulation by CALR9p2 of CALR9p2(T5F)-tetramer-specific CD8+ T cells", "setting": "[4]; CD8+ T cells from CALR9p2(T5F)-immunized mice", "value": "The only CALR9p2-potentiated CD8+ T cells were those also staining for the CALR9p2(T5F)-tetramer"},
      {"measurement": "Tim3 and Pd1 levels of CALR9p2-specific vs CALR9p2(T5F)-specific CD8+ T cells", "setting": "[4]; after restimulation", "value": "equal levels of Tim3 and Pd1"},
      {"measurement": "CD8+ T cell response to CALR9p2(T5F)", "setting": "[5]; [12]", "value": "very small response to the CALR9p2(T5F) peptide"},
      {"measurement": "cross-reactive CD8+ T cell response to CALR9p2", "setting": "[5]; [12]", "value": "no detectable cross-reactive CD8+ T cell responses to CALR9p2 in vitro"},
      {"measurement": "CALR9p2-specific CD8+ T cell response", "setting": "[5]", "value": "elicited a CD8+ T cell capable of cross-reacting with CALR9p2 in vitro"},
      {"measurement": "CD8+ T cell response to CALR9p2(T5F)", "setting": "[5]; [13]", "value": "intermediate response to CALR9p2(T5F)"},
      {"measurement": "cross-reactive CD8+ T cell response to CALR9p2", "setting": "[5]; [13]", "value": "no detectable cross-reactive CD8+ T cells"}
    ]},
    {"molecule": "RMMRTKMRM [CALR9p2, 9mer CALRMUT peptide starting at position 2, parental native peptide]", "values": [
      {"measurement": "tumor growth", "setting": "[1]; [10]", "value": "grew at the same rate"},
      {"measurement": "binding to HLA-A*02:01 (stabilization)", "setting": "[6]", "value": "weak binding signal compared to DMSO control"},
      {"measurement": "H-2Kb stabilization", "setting": "[3]; in the presence of serum", "value": "did not elicit detectable H-2Kb stabilization"},
      {"measurement": "H-2Kb stabilization", "setting": "[3]; serum omitted", "value": "poor but still detectable binding"},
      {"measurement": "peptide concentration at which H-2Kb was stabilized", "setting": "[3]; serum omitted, only the highest concentration", "value": 100, "unit": "µg/mL"},
      {"measurement": "CALR9p2-specific CD8+ T cell response", "setting": "[5]", "value": "did not elicit any CALR9p2-specific CD8+ T cell response"},
      {"measurement": "CD8+ T cell responses (IFNγ) to CALR9p2 alone", "setting": "[7]", "value": "three of the six healthy donors"}
    ]},
    {"molecule": "SIINFEKL [chicken ovalbumin (OVA)-derived peptide, positive control]", "values": [
      {"measurement": "H-2Kb stabilization", "setting": "[3]; in the presence of serum", "value": "strong binding"}
    ]},
    {"molecule": "SIINFEKL (Custom order from Genscript)", "note": "[chicken ovalbumin (OVA)-derived peptide SIINFEKL]", "values": [
      {"measurement": "binding result", "setting": "[8]", "value": "binds"}
    ]},
    {"molecule": "RMMRFKMRM (Custom synthetic peptide)", "note": "[CALR9p2(T5F) heteroclitic peptide (RMMRFKMRM)]", "values": [
      {"measurement": "fold H-2Kb stabilization compared to CALR9p2", "setting": "[9]", "value": "~10", "unit": "fold"}
    ]}
  ]
}
